In publication PMC4300089, “Structure-Guided Design of Selective Epac1 and Epac2 Agonists” (PLoS Biology, 2015):

Target: T1, Epac1 (Homo sapiens, UniProt O95398)
T1 construct: made in house
T1 sequence (O95398 150-881 isoform O95398-3): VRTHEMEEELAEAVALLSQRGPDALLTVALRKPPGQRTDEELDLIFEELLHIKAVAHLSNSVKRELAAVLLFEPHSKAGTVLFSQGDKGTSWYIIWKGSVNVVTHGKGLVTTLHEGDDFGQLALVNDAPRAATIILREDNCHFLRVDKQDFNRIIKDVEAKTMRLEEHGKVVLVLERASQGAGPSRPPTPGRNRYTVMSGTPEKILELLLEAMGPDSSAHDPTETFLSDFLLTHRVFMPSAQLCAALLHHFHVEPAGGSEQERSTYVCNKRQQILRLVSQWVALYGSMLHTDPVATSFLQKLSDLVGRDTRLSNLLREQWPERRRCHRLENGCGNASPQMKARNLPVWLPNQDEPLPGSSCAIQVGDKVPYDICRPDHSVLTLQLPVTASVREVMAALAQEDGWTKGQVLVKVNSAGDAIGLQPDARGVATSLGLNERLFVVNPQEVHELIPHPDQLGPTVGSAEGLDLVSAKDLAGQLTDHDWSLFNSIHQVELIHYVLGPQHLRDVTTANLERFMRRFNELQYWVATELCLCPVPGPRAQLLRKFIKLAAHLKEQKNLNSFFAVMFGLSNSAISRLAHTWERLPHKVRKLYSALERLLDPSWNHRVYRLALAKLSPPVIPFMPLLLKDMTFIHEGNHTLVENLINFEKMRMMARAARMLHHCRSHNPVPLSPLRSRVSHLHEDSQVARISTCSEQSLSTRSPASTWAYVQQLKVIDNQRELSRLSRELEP
Assay: Epac activation assay, Epac1
Type: biochemical

| SMILES | kobs (0.3 μM compound) | kobs (0.5 μM compound) | kobs (0.8 μM compound) | kobs (1 μM compound) | kobs (2 μM compound) | kobs (3 μM compound) | kobs (4 μM compound) | kobs (5 μM compound) | kobs (6 μM compound) | kobs (7 μM compound) | kobs (20 μM compound) | kobs (30 μM compound) | kobs (40 μM compound) | kobs (50 μM compound) | kobs (60 μM compound) | kobs (70 μM compound) | kobs (80 μM compound) | kobs (100 μM compound) | further results |
| --- | --- | --- | --- | --- | --- | --- | --- | --- | --- | --- | --- | --- | --- | --- | --- | --- | --- | --- | --- |
| COC1C2OP(=O)(O)OCC2OC1n1c(Sc2ccc(Cl)cc2)nc2c(N)ncnc21 [D-007, 8-pCPT-2′-O-Me-cAMP, reference compound] | 0.000569 s⁻¹ | 0.000822 s⁻¹ | 0.00123 s⁻¹ | 0.00137 s⁻¹ | 0.00219 s⁻¹ | 0.00266 s⁻¹ | 0.00283 s⁻¹ | 0.00293 s⁻¹ | 0.00312 s⁻¹ | 0.00321 s⁻¹ | 0.00351 s⁻¹ | 0.00364 s⁻¹ | 0.00378 s⁻¹ | 0.00348 s⁻¹ | 0.00363 s⁻¹ | 0.0036 s⁻¹ | 0.00359 s⁻¹ | 0.00349 s⁻¹ | kobs (0.01 μM compound): 4.6e-05 s⁻¹; kobs (0.05 μM compound): 0.000133 s⁻¹; kobs (0.08 μM compound): 0.000193 s⁻¹; kobs (0.1 μM compound): 0.000213 s⁻¹; kobs (0.2 μM compound): 0.000391 s⁻¹; kobs (0.4 μM compound): 0.000728 s⁻¹; kobs (0.6 μM compound): 0.000999 s⁻¹; kobs (0.7 μM compound): 0.00113 s⁻¹; kobs (8 μM compound): 0.00328 s⁻¹; potency relative to cAMP by activation potential (times more potently than cAMP) (Epac1): 100 times |
| Cc1ccc(CSc2nc3c(N)ncnc3n2[C@@H]2O[C@@H]3CO[P@](O)(=S)O[C@H]3[C@H]2O)cc1 [S-230, Sp-8-pMeBnT-cAMPS] | 1e-05 s⁻¹ | 1e-05 s⁻¹ | 1.1e-05 s⁻¹ | 1.4e-05 s⁻¹ | 2.1e-05 s⁻¹ | 2.6e-05 s⁻¹ | 3e-05 s⁻¹ | 3.3e-05 s⁻¹ | 3.8e-05 s⁻¹ | 4.1e-05 s⁻¹ | 9.4e-05 s⁻¹ | 0.000115 s⁻¹ | 0.000131 s⁻¹ | 0.000148 s⁻¹ | 0.000156 s⁻¹ | 0.000164 s⁻¹ | 0.00017 s⁻¹ | 0.000198 s⁻¹ | kobs (10 μM compound): 5.6e-05 s⁻¹; kobs (200 μM compound): 0.000232 s⁻¹; kobs (400 μM compound): 0.000232 s⁻¹; kobs (600 μM compound): 0.000218 s⁻¹; kobs (800 μM compound): 0.000186 s⁻¹ |
